“Also recorded” adds a separate entry of the source.
Assays:
[1] = test system: CRISPR mediated gene tagging with HiBiT; experiment: CRISPR mediated gene tagging with HiBiT in cells (bioluminescence); format: cell-based; conditions: various concentrations; FIG. 17B
SpCas9 [2] = target: T1, SpCas9 (Streptococcus pyogenes serotype M1, UniProt Q99ZW2); experiment: Broad spectrum CRISPR inhibition, SpCas9 (FIG. 22A); format: biochemical, S. pyogenes
FnCpf1 = FnCpf1 (Francisella tularensis subsp. novicida, UniProt A0Q7Q2); format: biochemical; conditions: FIG. 22B
Chain of FnCpf1 (A0Q7Q2 whole entry, looked up): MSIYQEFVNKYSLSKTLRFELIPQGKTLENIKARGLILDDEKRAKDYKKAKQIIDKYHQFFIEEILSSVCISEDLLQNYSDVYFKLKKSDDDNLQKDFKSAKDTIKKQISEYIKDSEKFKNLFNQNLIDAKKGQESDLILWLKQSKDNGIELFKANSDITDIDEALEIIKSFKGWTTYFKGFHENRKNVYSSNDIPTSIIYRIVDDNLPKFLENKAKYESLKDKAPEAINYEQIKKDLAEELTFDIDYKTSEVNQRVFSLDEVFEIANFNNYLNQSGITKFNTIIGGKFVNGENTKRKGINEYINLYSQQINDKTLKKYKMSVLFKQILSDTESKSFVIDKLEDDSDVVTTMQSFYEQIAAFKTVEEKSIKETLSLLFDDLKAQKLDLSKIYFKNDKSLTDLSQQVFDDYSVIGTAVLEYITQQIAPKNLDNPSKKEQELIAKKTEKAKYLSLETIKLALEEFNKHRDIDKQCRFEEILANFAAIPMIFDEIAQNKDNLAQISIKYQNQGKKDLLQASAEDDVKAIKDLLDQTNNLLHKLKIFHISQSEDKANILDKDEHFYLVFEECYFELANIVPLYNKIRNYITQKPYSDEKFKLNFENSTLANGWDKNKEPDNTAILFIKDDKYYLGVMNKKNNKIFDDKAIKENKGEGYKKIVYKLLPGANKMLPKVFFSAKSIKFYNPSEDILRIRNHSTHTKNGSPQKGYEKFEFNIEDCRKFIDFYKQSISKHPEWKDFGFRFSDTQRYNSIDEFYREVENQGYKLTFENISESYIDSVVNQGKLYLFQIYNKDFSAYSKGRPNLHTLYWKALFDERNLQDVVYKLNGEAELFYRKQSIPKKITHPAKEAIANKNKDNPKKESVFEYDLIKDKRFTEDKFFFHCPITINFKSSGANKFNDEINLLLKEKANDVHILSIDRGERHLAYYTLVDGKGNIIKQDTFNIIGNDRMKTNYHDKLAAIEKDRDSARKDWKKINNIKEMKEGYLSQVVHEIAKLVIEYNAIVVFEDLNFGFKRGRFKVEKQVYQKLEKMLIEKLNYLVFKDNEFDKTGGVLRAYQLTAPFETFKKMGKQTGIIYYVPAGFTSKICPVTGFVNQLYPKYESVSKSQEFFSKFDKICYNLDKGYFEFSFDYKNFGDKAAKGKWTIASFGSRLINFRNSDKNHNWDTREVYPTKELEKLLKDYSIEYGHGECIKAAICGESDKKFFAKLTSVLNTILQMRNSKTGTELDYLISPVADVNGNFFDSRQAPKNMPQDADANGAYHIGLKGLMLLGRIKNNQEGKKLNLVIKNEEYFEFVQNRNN

SpCas9 [3] = target: T1, SpCas9; conditions: FIG. 16C
SpCas9 [4] = target: T1, SpCas9; experiment: cell-based

T1 sequence (Q99ZW2 whole entry): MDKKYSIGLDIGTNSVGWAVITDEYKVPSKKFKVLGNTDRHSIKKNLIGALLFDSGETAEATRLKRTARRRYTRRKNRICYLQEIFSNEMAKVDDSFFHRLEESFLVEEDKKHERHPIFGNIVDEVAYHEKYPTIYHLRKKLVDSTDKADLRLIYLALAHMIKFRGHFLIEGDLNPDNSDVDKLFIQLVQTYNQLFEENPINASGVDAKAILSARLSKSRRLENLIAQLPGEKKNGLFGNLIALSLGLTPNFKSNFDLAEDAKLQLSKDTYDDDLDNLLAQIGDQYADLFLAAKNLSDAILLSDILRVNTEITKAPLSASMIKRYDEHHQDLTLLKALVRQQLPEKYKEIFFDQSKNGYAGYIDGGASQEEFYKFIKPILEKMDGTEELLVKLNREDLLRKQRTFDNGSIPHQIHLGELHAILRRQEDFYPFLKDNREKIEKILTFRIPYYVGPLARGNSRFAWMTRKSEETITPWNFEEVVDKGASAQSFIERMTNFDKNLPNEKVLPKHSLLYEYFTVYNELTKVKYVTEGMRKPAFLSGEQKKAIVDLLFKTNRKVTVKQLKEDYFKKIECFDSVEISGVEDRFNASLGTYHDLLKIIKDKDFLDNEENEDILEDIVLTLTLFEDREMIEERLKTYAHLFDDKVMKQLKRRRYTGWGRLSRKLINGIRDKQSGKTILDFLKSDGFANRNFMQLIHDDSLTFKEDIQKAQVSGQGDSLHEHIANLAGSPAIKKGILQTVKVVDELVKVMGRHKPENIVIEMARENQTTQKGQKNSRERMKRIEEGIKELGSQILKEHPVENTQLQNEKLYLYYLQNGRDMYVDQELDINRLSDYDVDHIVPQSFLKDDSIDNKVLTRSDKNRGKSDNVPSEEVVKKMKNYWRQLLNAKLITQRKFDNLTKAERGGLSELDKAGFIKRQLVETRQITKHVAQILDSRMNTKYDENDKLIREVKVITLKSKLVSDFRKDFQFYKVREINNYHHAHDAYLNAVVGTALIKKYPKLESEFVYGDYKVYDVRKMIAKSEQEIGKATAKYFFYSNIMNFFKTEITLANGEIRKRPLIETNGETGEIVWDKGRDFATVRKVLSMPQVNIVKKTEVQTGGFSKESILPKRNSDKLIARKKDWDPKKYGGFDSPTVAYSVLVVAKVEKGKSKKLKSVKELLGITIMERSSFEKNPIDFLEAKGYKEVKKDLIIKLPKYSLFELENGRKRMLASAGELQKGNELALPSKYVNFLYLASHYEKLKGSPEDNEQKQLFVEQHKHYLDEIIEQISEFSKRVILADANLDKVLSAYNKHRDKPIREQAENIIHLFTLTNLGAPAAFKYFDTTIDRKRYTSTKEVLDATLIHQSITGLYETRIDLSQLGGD

Row | Compound | Inhibition of CRISPR mediated gene tagging with HiBiT (bioluminescence) [1] | Inhibition of SpCas9 (SpCas9 [2]) | Inhibition of FnCpf1 (FnCpf1) | eGFP fluorescence in the presence of eGFP-targeted SpCas9 activity (SpCas9 [3]) | IC50 (SpCas9 [4]) [µM]
1 | N#C[C@@H]1N[C@H](CO)[C@H]1c1ccc(-c2ccccc2F)cc1 [BRD7608] | inhibited in a dose-dependent manner | broad-spectrum CRISPR inhibitors; also recorded: similarly inhibit | broad-spectrum CRISPR inhibitors; also recorded: similarly inhibit | eGFP fluorescence is maintained | 3.9
2 | N#C[C@H]1N[C@@H](CO)[C@@H]1c1ccc(C#CC2CCCC2)cc1 [BRD9822] | inhibited in a dose-dependent manner | broad-spectrum CRISPR inhibitors; also recorded: similarly inhibit | broad-spectrum CRISPR inhibitors; also recorded: similarly inhibit | eGFP fluorescence is maintained | 5.5

Reference: patent US12460244B2, “Inhibitors of RNA-guided nuclease activity and uses thereof” (THE BROAD INSTITUTE, INC., priority 2018, dated 2025)
